Measured values as given in patent US10898481B2 (priority 2018, dated 2021).
Read-outs that look alike come from different tables or passages of the source.

What was measured:
[1] = target: hADORA1/CHO (hA1 expressing) cells (Homo sapiens (Human), UniProt P30542); test: cell-based; details: 10 μM adenosine
hA2a/CHO = hA2a/CHO (Homo sapiens (Human), UniProt P29274); test: cAMP inhibition assay in hA2a/CHO cells, 10 μM adenosine; assay type: cell-based;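 note: compounds added to cells 30 min ahead of adenosine, then a further 30 min at 37 °C with adenosine before cAMP detection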
Chain of hA2a/CHO (P29274 whole entry): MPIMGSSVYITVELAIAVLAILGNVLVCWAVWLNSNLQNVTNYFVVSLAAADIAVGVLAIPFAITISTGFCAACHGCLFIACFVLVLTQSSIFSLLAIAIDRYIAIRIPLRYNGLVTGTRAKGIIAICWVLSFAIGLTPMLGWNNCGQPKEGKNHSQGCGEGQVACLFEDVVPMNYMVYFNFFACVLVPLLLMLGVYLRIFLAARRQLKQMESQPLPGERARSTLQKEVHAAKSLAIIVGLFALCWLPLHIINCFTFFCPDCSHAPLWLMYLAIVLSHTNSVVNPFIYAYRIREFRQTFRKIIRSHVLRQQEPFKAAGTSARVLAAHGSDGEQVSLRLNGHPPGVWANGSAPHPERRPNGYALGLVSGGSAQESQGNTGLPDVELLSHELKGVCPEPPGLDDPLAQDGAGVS
Description: (§1) hA2a/CHO, hA2b/CHO, hA3/CHO and mA2a/CHO (Genscript) were plated at 5×10^3 cells/well into 384-well polystyrene plates at the day of experiment. Compounds were pre-incubated with cells for 30 min at 37° C., 5% CO2. Then 10 μM adenosine was added to the cells and incubated for 30 min at 37° C., 5% CO2. Detection reagent (CISBIO) was added and the plates were incubated for 60 min at room temperature. The signal was captured by Envision.

hA2b/CHO = hA2b/CHO (Homo sapiens (Human), UniProt P29275); test: cAMP inhibition assay in hA2b/CHO cells, 10 μM adenosine; assay type: cell-based;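 note: cells exposed to compound 30 min at 37 °C, then stimulated with adenosine a further 30 min, cAMP read after 60 min at room temperature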
Chain of hA2b/CHO (P29275 whole entry): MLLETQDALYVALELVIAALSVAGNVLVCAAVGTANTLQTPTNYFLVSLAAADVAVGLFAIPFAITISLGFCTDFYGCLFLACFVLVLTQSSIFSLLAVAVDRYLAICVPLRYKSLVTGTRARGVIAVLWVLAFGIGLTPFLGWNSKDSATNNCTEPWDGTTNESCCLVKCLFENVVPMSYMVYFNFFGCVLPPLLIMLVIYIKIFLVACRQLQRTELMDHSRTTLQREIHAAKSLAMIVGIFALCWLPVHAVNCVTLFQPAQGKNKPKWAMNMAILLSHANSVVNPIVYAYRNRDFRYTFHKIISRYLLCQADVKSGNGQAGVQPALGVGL
Description: as §1

mA2a/CHO = mA2a/CHO (Mus musculus (Mouse), UniProt Q60613); test: cAMP inhibition assay in mA2a/CHO cells, 10 μM adenosine; assay type: cell-based;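 note: compounds preincubated 30 min at 37 °C before the adenosine challenge, then 30 min further stimulation, readout after 60 min detection reagent incubation at room temperature in 384-well plates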
Chain of mA2a/CHO (Q60613 whole entry): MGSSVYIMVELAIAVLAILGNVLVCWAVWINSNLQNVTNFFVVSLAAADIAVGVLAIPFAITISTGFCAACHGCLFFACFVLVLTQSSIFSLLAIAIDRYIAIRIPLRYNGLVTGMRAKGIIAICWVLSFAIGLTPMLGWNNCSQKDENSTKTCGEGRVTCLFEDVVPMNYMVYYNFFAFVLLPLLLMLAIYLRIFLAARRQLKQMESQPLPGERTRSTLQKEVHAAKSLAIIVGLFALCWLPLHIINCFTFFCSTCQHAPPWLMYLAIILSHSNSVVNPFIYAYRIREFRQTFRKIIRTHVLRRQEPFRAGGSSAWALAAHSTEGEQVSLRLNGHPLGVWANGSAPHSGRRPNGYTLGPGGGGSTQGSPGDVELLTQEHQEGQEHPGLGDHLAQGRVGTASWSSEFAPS
Description: as §1

[2] = FLIPR inhibition, read-out: cAMP & FLIPR IC50 (nM) hA1
[3] = read-out: cAMP & FLIPR IC50 (nM) hA2a
[4] = read-out: cAMP & FLIPR IC50 (nM) hA2b
[5] = read-out: cAMP & FLIPR IC50 (nM) mA2a

Chain of hADORA1/CHO (hA1 expressing) cells (P30542 whole entry): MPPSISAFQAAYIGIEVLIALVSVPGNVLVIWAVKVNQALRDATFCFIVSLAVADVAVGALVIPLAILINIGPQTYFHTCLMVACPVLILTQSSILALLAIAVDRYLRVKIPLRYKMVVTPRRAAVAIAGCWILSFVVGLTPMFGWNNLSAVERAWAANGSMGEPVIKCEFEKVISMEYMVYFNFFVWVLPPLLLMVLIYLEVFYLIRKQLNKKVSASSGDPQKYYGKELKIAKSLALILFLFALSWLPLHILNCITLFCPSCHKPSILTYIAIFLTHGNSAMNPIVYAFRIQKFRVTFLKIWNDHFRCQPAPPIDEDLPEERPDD

Structure (SMILES) | IC50 [1, 2] | IC50 (hA2a/CHO; [3]) | IC50 (hA2b/CHO; [4]) | IC50 (mA2a/CHO; [5]) | IC50 ([1]; cAMP & FLIPR IC50 (nM) hA1, FLIPR inhibition) | IC50 (hA2a/CHO; cAMP & FLIPR IC50 (nM) hA2a) | IC50 (hA2b/CHO; cAMP & FLIPR IC50 (nM) hA2b) | IC50 (mA2a/CHO; cAMP & FLIPR IC50 (nM) mA2a)
COc1ccccc1CNC(=O)c1nc(-c2cc(C)nc(N)c2)c(-c2ccc(F)cc2)nc1N [Example 83, 3-amino-6-(2-amino-6-methylpyridin-4-yl)-5-(4-fluorophenyl)-N-(2-methoxybenzyl)pyrazine-2-carboxamide] | 132 nM | 2 nM | 547 nM | 116 nM | – | – | – | –
CCc1ccccc1CNC(=O)c1nc(-c2cc(C)nc(C)c2)c(-c2ccc(F)cc2)nc1N [Example 84, 3-amino-6-(2,6-dimethylpyridin-4-yl)-N-(2-ethylbenzyl)-5-(4-fluorophenyl) pyrazine-2-carboxamide] | 1200 nM | 18 nM | ≥ 10000 nM | 238 nM | – | – | – | –
Cc1cc(-c2nc(C(=O)NCc3c(F)cccc3OC(F)F)c(N)nc2-c2ccc(F)cc2)cc(C)n1 [Example 85, 3-amino-N-(2-(difluoromethoxy)-6-fluorobenzyl)-6-(2,6-dimethylpyridin-4-yl)-5-(4-fluorophenyl)pyrazine-2-carboxamide] | 299 nM | 2.5 nM | 418 nM | 36 nM | – | – | – | –
COc1ccccc1C(=O)NCc1nc(-c2cc(C)nc(C)c2)c(-c2ccc(F)cc2)nc1N [Example 86, N-((3-amino-6-(2,6-dimethylpyridin-4-yl)-5-(4-fluorophenyl)pyrazin-2-yl)methyl)-2-methoxybenzamide] | 539 nM | 5 nM | 7830 nM | 192 nM | – | – | – | –
Nc1nc(-c2ccc(F)cc2)c(-c2ccc(=O)n(C3CC3)c2)nc1C(=O)NCc1c(F)cccc1F [Example 87, 3-amino-6-(1-cyclopropyl-6-oxo-1,6-dihydropyridin-3-yl)-N-(2,6-difluorobenzyl)-5-(4-fluorophenyl)pyrazine-2-carboxamide] | 31 nM | 10 nM | 153 nM | 22 nM | – | – | – | –
Cc1scnc1CNC(=O)c1nc(-c2ccc3nccn3c2)c(-c2ncco2)nc1N [Example 94, 3-amino-6-[imidazo[1,2-a]pyridin-6-yl]-N-[(5-methyl-1,3-thiazol-4-yl)methyl]-5-(1,3-oxazol-2-yl)pyrazine-2-carboxamide] | 2960 nM | 3.9 nM | 76 nM | 34 nM | – | – | – | –
Nc1ccnc(CNC(=O)c2nc(-c3ccc4nccn4c3)c(-c3ncco3)nc2N)n1 [Example 95, 3-amino-N-[(4-aminopyrimidin-2-yl)methyl]-6-[imidazo[1,2-a]pyridin-6-yl]-5-(1,3-oxazol-2-yl)pyrazine-2-carboxamide] | 10000 nM | 69 nM | 78 nM | 667 nM | – | – | – | –
CP(C)(=O)c1cccc(F)c1CNC(=O)c1nc(-c2ccc3nccn3c2)c(-c2ncco2)nc1N [Example 96, 3-amino-N-[[2-(dimethylphosphoryl)-6-fluorophenyl]methyl]-6-[imidazo[1,2-a]pyridin-6-yl]-5-(1,3-oxazol-2-yl)pyrazine-2-carboxamide] | 136 nM | 2.5 nM | 164 nM | 7.5 nM | – | – | – | –
Cn1cc(-c2nc(C(=O)NCc3c(F)cccc3P(C)(C)=O)c(N)nc2-c2ncco2)ccc1=O [Example 97, 3-amino-N-(2-(dimethylphosphoryl)-6-fluorobenzyl)-6-(1-methyl-6-oxo-1,6-dihydropyridin-3-yl)-5-(oxazol-2-yl) pyrazine-2-carboxamide] | 482 nM | 50 nM | 4880 nM | 40 nM | – | – | – | –
CNc1cccc(CNC(=O)c2nc(-c3ccc4nccn4c3)c(-c3ncco3)nc2N)n1 [Example 99, 3-amino-6-(imidazo[1,2-a]pyridin-6-yl)-N-((6-(methylamino)pyridin-2-yl)methyl)-5-(oxazol-2-yl)pyrazine-2-carboxamide] | 171 nM | 5.1 nM | 200 nM | 35 nM | – | – | – | –
Nc1nc(-c2ncco2)c(-c2ccc(=O)n(CCCO)c2)nc1C(=O)NCc1c(F)cccc1F [Example 102, 3-amino-N-[(2,6-difluorophenyl)methyl]-6-[1-(3-hydroxypropyl)-6-oxo-1,6-dihydropyridin-3-yl]-5-(1,3-oxazol-2-yl)pyrazine-2-carboxamide] | 78 nM | 9.9 nM | 120 nM | 48 nM | – | – | – | –
COCCn1cc(-c2nc(C(=O)NCc3c(F)cccc3F)c(N)nc2-c2ncco2)ccc1=O [Example 103, 3-amino-N-[(2,6-difluorophenyl)methyl]-6-[1-(2-methoxyethyl)-6-oxo-1,6-dihydropyridin-3-yl]-5-(1,3-oxazol-2-yl)pyrazine-2-carboxamide] | 272 nM | 38 nM | 2130 nM | 16 nM | – | – | – | –
Nc1nc(-c2ncco2)c(-c2ccc(=O)[nH]c2)nc1C(=O)NCc1c(F)cccc1F [Example 105, 3-amino-N-(2,6-difluorobenzyl)-5-(oxazol-2-yl)-6-(6-oxo-1,6-dihydropyridin-3-yl)pyrazine-2-carboxamide] | 3.5 nM | 0.1 nM | 1.8 nM | 0.8 nM | – | – | – | –
Cn1cc(-c2nc(C(=O)NCc3ccccc3F)c(N)nc2-c2ncco2)ccc1=O [Example 109, 3-amino-N-(2-fluorobenzyl)-6-(1-methyl-6-oxo-1,6-dihydropyridin-3-yl)-5-(oxazol-2-yl)pyrazine-2-carboxamide] | 486 nM | 13 nM | 240 nM | 20 nM | – | – | – | –
Cn1cc(-c2nc(C(=O)NCc3c(F)cccc3Cl)c(N)nc2-c2ncco2)ccc1=O [Example 110, 3-amino-N-(2-chloro-6-fluorobenzyl)-6-(1-methyl-6-oxo-1,6-dihydropyridin-3-yl)-5-(oxazol-2-yl)pyrazine-2-carboxamide] | 31 nM | 0.7 nM | 11 nM | 1 nM | – | – | – | –
Cc1cnc2ccc(-c3nc(C(=O)NCc4cccc(N5CC(N(C)C)C5)n4)c(N)nc3-c3ncco3)cn12 [Example 111, 3-amino-N-((6-(3-(dimethylamino)azetidin-1-yl)pyridin-2-yl)methyl)-6-(3-methylimidazo[1,2-a]pyridin-6-yl)-5-(oxazol-2-yl)pyrazine-2-carboxamide] | 2810 nM | 0.5 nM | 81 nM | 6.5 nM | – | – | – | –
Cc1cnc2ccc(-c3nc(C(=O)NCc4cccc(N5CCN(C)CC5)n4)c(N)nc3-c3ncco3)cn12 [Example 112, 3-amino-6-(3-methylimidazo[1,2-a]pyridin-6-yl)-N-((6-(4-methylpiperazin-1-yl)pyridin-2-yl)methyl)-5-(oxazol-2-yl)pyrazine-2-carboxamide] | 10000 nM | 1.3 nM | 502 nM | 18 nM | – | – | – | –
Cn1cnc2ccc(-c3nc(C(=O)NCc4ncccc4OCCO)c(N)nc3-c3ccc(F)cc3)cc21 [Example 113, 3-amino-5-(4-fluorophenyl)-N-[[3-(2-hydroxyethoxy)pyridin-2-yl]methyl]-6-(1-methyl-1H-1,3-benzodiazol-6-yl)pyrazine-2-carboxamide] | 70 nM | 0.4 nM | 68 nM | 1 nM | – | – | – | –
COCCOc1cccnc1CNC(=O)c1nc(-c2ccc3ncn(C)c3c2)c(-c2ccc(F)cc2)nc1N [Example 114, 3-amino-5-(4-fluorophenyl)-N-[[3-(2-methoxyethoxy)pyridin-2-yl]methyl]-6-(1-methyl-1H-1,3-benzodiazol-6-yl)pyrazine-2-carboxamide] | 83 nM | 0.7 nM | 170 nM | 1.5 nM | – | – | – | –
CN(C)CCOc1cccnc1CNC(=O)c1nc(-c2ccc3ncn(C)c3c2)c(-c2ccc(F)cc2)nc1N [Example 116, 3-amino-N-([3-[2-(dimethylamino)ethoxy]pyridin-2-yl]methyl)-5-(4-fluorophenyl)-6-(1-methyl-1H-1,3-benzodiazol-6-yl)pyrazine-2-carboxamide] | – | – | – | – | 61 nM | 9.6 nM | 6020 nM | 17 nM
Cn1cnc2ccc(-c3nc(C(=O)NCc4ncccc4NCCO)c(N)nc3-c3ccc(F)cc3)cc21 [Example 117, 3-amino-5-(4-fluorophenyl)-N-([3-[(2-hydroxyethyl)amino]pyridin-2-yl]methyl)-6-(1-methyl-1H-1,3-benzodiazol-6-yl)pyrazine-2-carboxamide] | 64 nM | 0.7 nM | 146 nM | 2.6 nM | – | – | – | –
Cc1cnc2ccc(-c3nc(C(=O)NCc4cnccc4N(C)C)c(N)nc3-c3ncco3)cn12 [Example 118, 3-amino-N-((4-(dimethylamino)pyridin-3-yl)methyl)-6-(3-methylimidazo[1,2-a]pyridin-6-yl)-5-(oxazol-2-yl)pyrazine-2-carboxamide] | 35 nM | 3.1 nM | 6.8 nM | 1.7 nM | – | – | – | –
Cn1cnc2ccc(-c3nc(C(=O)NCc4ncccc4OCC(N)=O)c(N)nc3-c3ccc(F)cc3)cc21 [Example 119, 3-amino-N-[[3-(carbamoylmethoxy)pyridin-2-yl]methyl]-5-(4-fluorophenyl)-6-(1-methyl-1H-1,3-benzodiazol-6-yl)pyrazine-2-carboxamide] | 41 nM | 1.1 nM | 31 nM | 4.7 nM | – | – | – | –
Cc1cnc2ccc(-c3nc(C(=O)NC[C@H]4CCCN4)c(N)nc3-c3ncco3)cn12 [Example 122, (R)-3-amino-6-(3-methylimidazo[1,2-a]pyridin-6-yl)-5-(oxazol-2-yl)-N-(pyrrolidin-2-ylmethyl)pyrazine-2-carboxamide] | 10000 nM | 34 nM | 887 nM | 126 nM | – | – | – | –
